The subject of data set [1] is human SK—OV-3 ovarian cancer cells. Description: Cellular Activity Assay (cytotoxicity, crystal violet). The class given is cell-based. Particulars: Homo sapiens, SK—OV-3 cells, treated for 48 hr, 0.1-100 μM, crystal violet absorbance at 540 nm. The essentials: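 SK-OV-3 cells plated, allowed 24 h recovery, then treated 48 hr with compound at 0.1-100 μM. Live cells were fixed (3.0% formaldehyde), stained with 0.1% crystal violet and read at 540 nm. EC50 was fitted after normalizing to matched-DMSO controls.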

A short description of a further data set: Solubility Assay (HPLC). The class given is physicochemical. The following applies: HEPES/NaCl buffer, aqueous with cosolvent or surfactant or cyclodextrin, kinetic from dmso stock; 20 mM HEPES, 100 mM NaCl, pH 7.5, 18-24 hours at ambient temperature; read-out: Solubility. In a few lines: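 Compound from 20 mM DMSO stock added to 20 mM HEPES, 100 mM NaCl, pH 7.5, rotated 18-24 h at ambient temperature, then centrifuged 10 min at 20,000×g to remove solids. Supernatant diluted in DMSO and quantified by HPLC peak area against the closest of 200 μM and 20 μM standards, corrected for dilution.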

A further data set concerns the target T1, purified human PRX3 (Homo sapiens, UniProt P30048).
T1 construct: made in house
T1 sequence (P30048 62-256): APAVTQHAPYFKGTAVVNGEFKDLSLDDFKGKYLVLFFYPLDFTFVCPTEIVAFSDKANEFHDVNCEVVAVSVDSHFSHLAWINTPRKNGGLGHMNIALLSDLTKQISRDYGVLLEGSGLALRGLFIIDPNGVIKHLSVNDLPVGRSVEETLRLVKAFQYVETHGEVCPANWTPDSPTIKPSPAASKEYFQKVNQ
Description: Biochemical PRX3 Inhibition Assay (non-reducible crosslink by SDS PAGE + single adduct by MALDI-TOF MS). The following applies: 100 μM PRX3 with TRX2/thioredoxin reductase/NADPH system and hydrogen peroxide, 1-2 hr at 37° C. The essentials: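 Purified human PRX3 (100 µM) cycled with TRX2, thioredoxin reductase, NADPH regenerating system and H2O2, incubated with compound 1–2 h at 37 °C. Non-reducible crosslink quantified by densitometry of SDS-PAGE (~46 vs ~23 kDa) after DTT; single-adduct fraction from MALDI-TOF MS peak intensities, background-corrected against DMSO.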

In data set [2] the test system is Enterococcus hirae (ATCC #10541). In words: Antimicrobial Activity Assay (MIC / growth inhibition). The class given is cell-based. The following applies: ATCC10541; Enterococcus hirae; analogs tested at 20 μM final concentration. The protocol: The overnight growth was then diluted into growth media to make a single solution of E. hirae with a final optical density at 600 nm=0.02 AU. A 20 mM stock solution of Thiostrepton in DMSO was made and used to make multiple dilutions of TS in DMSO. Each TS dilution (0.1 mL) was then added to a test tube containing 10 mL of the diluted E. hirae and grown at 37° C. overnight while shaking at 180 rpm. The next morning, each tube was visually inspected to determine if the cells grew. Final concentrations tested were 0.120, 0.090, 0.075, 0.060, 0.045, 0.030, and 0.015 μM TS. […] Three replicates were made on three separate days (n=9). […] For TS analogs, the dilute E. hirae was treated with 20 μM final concentration of each analog (three replicates each). […] DMSO was used as a positive control (complete cell growth) and 20 μM thiostrepton was used as a negative control.

Converted amounts (≈) assume the structure as drawn.

What is called EC50 is the concentration needed to bring the measured effect to its halfway point. High values mean a need for much substance, low ones an effect from little substance. The solubility is how much of the substance goes into solution per volume. Usually MIC stands for the smallest concentration in the dilution series that meets the test's criterion for growth inhibition. As for `C=C(NC(=O)c1csc(-c2ccc(NC(=O)CCCCCBr)cc2)n1)C(=O)NC(=C)C(=O)OC` [Compound 4, Methyl 2-(2-(2-(4-(6-bromohexanamido)phenyl)thiazole-4-carboxamido)acrylamido)acrylate], the EC50 in data set [1] was in the range of 1 to 10 µM. Further, the solubility in “Solubility Assay (HPLC)” was under 100 µM. Besides, the “PRX3 Inhibition (Crosslink + Mono-adduct)” value (shortened to “PRX3 Inhibition”) on purified human PRX3 is “++ (50-90%)”. Besides, the MIC in data set [2] is over 20 µM.
Take `C=C(NC(=O)c1csc(C2=CCN(C(=O)OC(C)(C)C)CC2)n1)C(=O)NC(=C)C(=O)OC` [Compound 9, Tert-butyl 4-(4-((3-((3-methoxy-3-oxoprop-1-en-2-yl)amino)-3-oxoprop-1-en-2-yl)carbamoyl)thiazol-2-yl)-3,6-dihydropyridine-1(2H)-carboxylate]: the EC50 in data set [1] lay in the range of 1 to 10 µM. Further, the solubility in the data set “Solubility Assay (HPLC)” was under 100 µM. Also, at purified human PRX3, the “PRX3 Inhibition” value was “+++ (>90%)”. In addition, the MIC in data set [2] was over 20 µM.
On the same counts, the results for `C=C(NC(=O)c1csc(-c2ccc(OC)cc2)n1)C(=O)NC(=C)C(=O)OC` [Compound 7, Methyl 2-(2-(2-(4-methoxyphenyl)thiazole-4-carboxamido)acrylamido)acrylate] are 1 to 10 µM, under 100 µM, “++ (50-90%)” and over 20 µM.
For `C=C(NC(=O)c1csc(-c2ccc(COC(=O)NCc3ccccc3)cc2)n1)C(=O)NC(=C)C(=O)OC` [Compound 30, Methyl 2-(2-(2-(4-(((benzylcarbamoyl)oxy)methyl)phenyl)thiazole-4-carboxamido)acrylamido)acrylate] the same measures were 25 to 100 µM, under 100 µM, “+ (5-50%)” and over 20 µM.
With `C=C(NC(=O)c1csc(-c2ccc(NC(=O)OC(C)(C)C)cc2)n1)C(=O)NC(=C)C(=O)OC` [Compound 5, Methyl 2-(2-(2-(4-((tert-butoxycarbonyl)amino)phenyl)thiazole-4-carboxamido)acrylamido)acrylate], the EC50 in data set [1] was in the range of 1 to 10 µM. Also, the solubility in the data set “Solubility Assay (HPLC)” was under 100 µM. For the same molecule, the “PRX3 Inhibition” value on purified human PRX3 is reported as “+++ (>90%)”. Besides, the MIC in data set [2] was over 20 µM.
On the same counts, the results for `C=C(NC(=O)c1csc(-c2ccc(CNC(=O)OC(C)(C)C)cc2)n1)C(=O)NC(=C)C(=O)OC` [Compound 8, Methyl 2-(2-(2-(4-(((tert-butoxycarbonyl)amino)methyl)phenyl)thiazole-4-carboxamido)acrylamido)acrylate] are 1 to 10 µM, under 100 µM, “+++ (>90%)” and over 20 µM.
For `C=C(NC(=O)c1csc(N2CCC[C@H](NC(=O)OC(C)(C)C)C2)n1)C(=O)NC(=C)C(=O)OC` [Compound 20, Methyl (S)-2-(2-(2-(3-((tert-butoxycarbonyl)amino)piperidin-1-yl)thiazole-4-carboxamido)acrylamido)acrylate] the same measures were 1 to 10 µM, under 100 µM, “+++ (>90%)” and over 20 µM.
For `C=C(NC(=O)c1csc(N2CCC(COC(=O)NCCCOC)CC2)n1)C(=O)NC(=C)C(=O)OC` [Compound 32, Methyl 2-(2-(2-(4-((((3-methoxypropyl)carbamoyl)oxy)methyl)piperidin-1-yl)thiazole-4-carboxamido)acrylamido)acrylate] the same measures were 25 to 100 µM, 100 to 1000 µM (≈ 51 to 510 µg/mL), “++ (50-90%)” and over 20 µM.
Molecule `C=C(NC(=O)c1csc(N2CCC(C(=O)NCCNC(=O)OC(C)(C)C)CC2)n1)C(=O)NC(=C)C(=O)OC` [Compound 15, Methyl 2-(2-(2-(4-((2-((tert-butoxycarbonyl)amino)ethyl)carbamoyl)piperidin-1-yl)thiazole-4-carboxamido)acrylamido)acrylate] had an EC50 in data set [1] of 1 to 10 µM. In addition, the solubility in the data set “Solubility Assay (HPLC)” was under 100 µM. At purified human PRX3, the “PRX3 Inhibition” value is “+++ (>90%)”. The MIC in data set [2] is over 20 µM.
For `C=C(NC(=O)c1csc(N2CCCC(C(=O)NCC(C)C)C2)n1)C(=O)NC(=C)C(=O)OC` (centres unmarked) [Compound 28, Methyl 2-(2-(2-(3-(isobutylcarbamoyl)piperidin-1-yl)thiazole-4-carboxamido)acrylamido)acrylate], the EC50 in data set [1] is 1 to 10 µM. In “Solubility Assay (HPLC)”, the solubility was under 100 µM. Moreover, the “PRX3 Inhibition” value on purified human PRX3 is given as “+++ (>90%)”. Moreover, the MIC in data set [2] was over 20 µM.
On the same counts, the results for `C=C(NC(=O)c1csc(N2CCC(NC(=O)OCCOC)CC2)n1)C(=O)NC(=C)C(=O)OC` [Compound 33, Methyl 2-(2-(2-(4-(((2-methoxyethoxy)carbonyl)amino)piperidin-1-yl)thiazole-4-carboxamido)acrylamido)acrylate] are 25 to 100 µM, over 1000 µM, “+++ (>90%)” and over 20 µM.
Molecule `C=C(NC(=O)c1csc(N2CCC(NC(=O)OC(C)(C)C)CC2)n1)C(=O)NC(=C)C(=O)OC` [Compound 12, Methyl 2-(2-(2-(4-((tert-butoxycarbonyl)amino)piperidin-1-yl)thiazole-4-carboxamido)acrylamido)acrylate] showed an EC50 in data set [1] of 1 to 10 µM. Also, the solubility in “Solubility Assay (HPLC)” was under 100 µM. Further, the “PRX3 Inhibition” value at purified human PRX3 was “+++ (>90%)”. Besides, the MIC in data set [2] is over 20 µM.
`C=C(NC(=O)c1csc(N2CCC[C@@H](NC(=O)OCCOC)C2)n1)C(=O)NC(=C)C(=O)OC` [Compound 31, Methyl (R)-2-(2-(2-(3-(((2-methoxyethoxy)carbonyl)amino)piperidin-1-yl)thiazole-4-carboxamido)acrylamido)acrylate] gave an EC50 in data set [1] of 25 to 100 µM. Further, in the data set “Solubility Assay (HPLC)”, the solubility was over 1000 µM. Besides, the “PRX3 Inhibition” value at purified human PRX3 is “+ (5-50%)”. In data set [2], this molecule came in with an MIC of over 20 µM.
Regarding `C=C(NC(=O)c1csc(N2CCC[C@@H](NC(=O)OC(C)(C)C)C2)n1)C(=O)NC(=C)C(=O)OC` [Compound 11, Methyl (R)-2-(2-(2-(3-((tert-butoxycarbonyl)amino)piperidin-1-yl)thiazole-4-carboxamido)acrylamido)acrylate], in data set [1], the EC50 fell in the range of 1 to 10 µM. The solubility in “Solubility Assay (HPLC)” was under 100 µM. Also, the “PRX3 Inhibition” value at purified human PRX3 was “+++ (>90%)”. Besides, the MIC in data set [2] is over 20 µM.
On the same counts, the results for `C=C(NC(=O)c1csc(C2CCCN(C(=O)OC(C)(C)C)C2)n1)C(=O)NC(=C)C(=O)OC` (centres unmarked) [Compound 3, Tert-butyl 3-(4-((3-((3-methoxy-3-oxoprop-1-en-2-yl)amino)-3-oxoprop-1-en-2-yl)carbamoyl)thiazol-2-yl)piperidine-1-carboxylate] are 10 to 25 µM, 100 to 1000 µM (≈ 46.5 to 465 µg/mL), “++ (50-90%)” and over 20 µM.
`C=C(NC(=O)c1csc(N2CCC(CNC(=O)OCC)CC2)n1)C(=O)NC(=C)C(=O)OC` [Compound 22, Methyl 2-(2-(2-(4-(((ethoxycarbonyl)amino)methyl)piperidin-1-yl)thiazole-4-carboxamido)acrylamido)acrylate] displayed an EC50 in data set [1] of 1 to 10 µM. In the data set “Solubility Assay (HPLC)”, the solubility was under 100 µM. At purified human PRX3, the “PRX3 Inhibition” value is recorded as “+++ (>90%)”. In data set [2], the MIC was over 20 µM.
`C=C(NC(=O)c1csc(-c2ccc(NC(=O)OC(C)(C)C)nc2)n1)C(=O)NC(=C)C(=O)OC` [Compound 2, Methyl 2-(2-(2-(6-((tert-butoxycarbonyl)amino)pyridine-3-yl)thiazole-4-carboxamido)acrylamido acrylate] returned an EC50 in data set [1] (SK-OV-3, 48 h) of 1 to 10 µM. Further, the solubility in the data set “Solubility Assay (HPLC)” was under 100 µM. At purified human PRX3, the “PRX3 Inhibition” value was “++ (50-90%)”. This molecule also gave an MIC in data set [2] of over 20 µM.

(Values after patent publication US20250011316A1, “PEROXIREDOXIN 3 INHIBITORS AND METHODS OF USE FOR TREATING CANCER” (Wake Forest University Health Sciences, priority 2022, published 2025).)
